Measured values taken from patent publication US12642769B2, “Delivery carrier into cell” (Kabusikikaisya ITO, priority 2019, dated 2026).
Where two headings read alike, the source gives them in different places. Values belong to the compound of their own block, whether it stands above or below them.

Tests used:
[1] = format: physicochemical; details: for Remaining rate: buffer; for Evaluation results: 0.02 mol/L in purified water, 50° C., one month
Method: APS, APPS, and EPC so that the concentration of each ascorbate derivative is 0.02 mol/L. Dissolve them in purified water and store them at 50° C. for one month to determine their potency in a high performance liquid The starting titers of each substance were measured by chromatography, and the results after one month were used as the starting titer of 100%. If more than 95% of the result was remaining in the material, it is ∘, and if less than 95% or more than 80% of the result was less than 95%, it is […]. […] Sodium ascorbic acid-2-phosphate: APS; Sodium ascorbic acid-2-phosphate-6-palmitate 3: APPS; Potassium tocopheryl ascorbic acid-2-phosphate: EPC; ascorbic acid: AA.

[2] = format: physicochemical; details: for Remaining rate: buffer; for Evaluation results: 0.5% by weight in purified water, defoaming time
Method: The ascorbic acid derivatives of APS, APPS, EPC, and AA were dissolved in purified water at a concentration of 0.5% by weight, and the time to defoam the bubbles was measured with a sponge under the same conditions. The results are shown in Table 14, where the defoaming time of the APPS with the longest defoaming time was set to 100% and the defoaming time of each was calculated as a percentage, with 90% or more being considered O (best), 80% or more to 90% or less being considered B (good), and 80% or less being considered X (poor). Description of abbreviations: ascorbic acid-2-phosphateNa:APS, ascorbic acid-2-phosphate-6-palmitate3Na:APPS, ascorbic acid-2-tocopheryl potassium:EPC, ascorbic acid:AA.

[3] = system: normal human epidermal fibroblasts; assay: cell uptake of Rhodamine B from temperature-responsive liposome carriers with different vitamin derivatives; format: cell-based; details: EPC-added groups set to 100%, liposome carrier with DOPEMP (NIPAA/DMAPAA 5%) Cop, rhodamine 1 μM, 35° C. 1 hour, 40° C. 20 min
Method: The total amount of the next lipid was 20 mg, the molar ratio of (lipid 1,2-diore oil-3-trimethylammonium propane):(total weight of lamella-forming surfactant diore oil phosphatidylethanolamine and DOPEMP (NIPAA/DMAPAA 5%) Cop) was 3:7. Each was dissolved in chloroform. Further, the fluorescent dye Rhodamine B (1 mg) was added and dissolved. The lower limit critical dissolution temperature of DOPEMP (NIPAA/DMAPAA 5%) Cop used in this experiment in water was 40° C. The molar ratio of (dioleoylphosphatidylethanolamine: DOPEMP (NIPAA/DMAPAA) Cop.) added by total weight was 6.5:0.5.
The solution was transferred to an eggplant flask and the solvent was blown off by an evaporator to prepare a lipid film. EPC, APPS, APS and AA (ascorbic acid), which are […] of Vitamin derivatives having different ATG activity and CTS activity (hereinafter abbreviated as ATG-CTS activity), were prepared. To this lipid film, EPC, APPS, APS and AA (5 mg each) dissolved in PBS (1 ml) were added. The lipid film was hydrated and then dispersed by vortexing. After that, sonication was performed for 30 minutes in an ultrasonic bath to reduce the size of the liposome, and then the liposome was passed through a 200 nm filter using an extruder to adjust the size of the liposome. The average particle size of the examples and comparative examples was 111 nm±10 nm. Then, the liposomes were separated and purified by gel filtration. By the above method, a Delivery carrier into cell of the present invention containing an ATG-CTS activator, a temperature-responsive polymer and a hydrocarbon was prepared.
Next, normal human epidermal fibroblasts were cultured in DMEM (low glucose) containing 5% FBS for 24 hours at 37° C. at a density of 5×10^5 cell/well in 6-well plates, and then the medium containing four delivery carrier into the cell (added to achieve a final rhodamine concentration of 1 μM), including the embodiments and comparative examples prepared as described above, was exchanged for each medium and cultured at 35° C. for 1 hour. After that, it was incubated at 40° C. for 20 min, and then at 35° C. for 1 h. It was then washed five times with PBS and immobilized with 4% paraformaldehyde phosphate buffer solution for 20 min, washed twice with PBS again, and the relative concentration of the fluorescent material taken up into the cell was determined by measuring the fluorescence intensity with a fluorescent microplate reader. cell of delivery carrier into the cell without vitamin derivatives were also cultured in the same way as additive-free controls and the fluorescence intensity was measured.

[4] = system: normal human epidermal fibroblasts; assay: cell uptake of rhodamine B from carriers without stimulus-responsive polymers; format: cell-based; details: EPC set at 100%; carrier without stimulus-responsive polymers; vitamin derivative 200 μM; 37° C. 1 hour
Method: Create a Delivery carrier into cell in a comparison experiment To investigate the effects of vitamin derivatives with different ATG-CTS activities on cell uptake, the following experiments were performed on delivery carrier into the cell without stimulus-responsive polymers. Six g of glycerin, 1 g of sodium cocoyl glutamate, and 1 g each of three vitamin derivatives (PA, APPS, and EPC) with different ATG-CTS activities were mixed with an electric hand mixer, and 0.1 g of rhodamine B, a fluorescent dye, was added to 20 g of jojoba oil and stirred for 20 minutes. To this, PBS was added to 100 g and stirred for 10 minutes with an electric hand mixer to prevent foaming. 3 types of cell carriers were obtained by completely dispersing them. A Delivery carrier into cell of vitamin derivative-free was also created using the same method as an additive-free control.
Normal human epidermal fibroblasts were incubated in DMEM (low glucose) containing 5% FBS at a density of 5×10^5 cell/well at 37° C. for 24 hours in 6-well plates, and then the medium containing the three delivery carrier into the cell of the invention (final concentration of PA, APPS, and EPC was added to 200 μM each) was replaced with the medium prepared as described above and incubated at 37° C. for 1 hour. Then, the cell were washed five times with PBS and immobilized with 4% paraformaldehyde phosphate buffer solution for 20 min, washed twice with PBS again, and the relative concentration of the fluorescent material taken up into the cell was determined by measuring the fluorescence intensity at the excitation wavelength of 555 (nm) and the fluorescence wavelength of 580 (nm) with a fluorescent microplate reader. cell of delivery carrier into the cell without vitamin derivatives were also cultured in the same way as additive-free controls and the fluorescence intensity was measured.

[5] = concentration in the formulation increased to 1%
HMV-II cell [6] = assay: Melanin production inhibition test; format: cell-based; details: 200 μM, no carrier
Method: Pre-treatment: The following melanin production inhibition tests were performed using A-2, B-2, C-2, and D-2 pH-responsive delivery carrier into the cell (A-3, B-3, C-3, and D-3): HMV-II cell were seeded in 24 well dishes at a concentration of 1×10^5 cell/mL, incubated for 24 hours, and then added 200 μM of IBMX and A-3, B-3, C-3, and D-3 pH-responsive delivery carrier into the cell (A-3, B-3, C-3, and D-3) at an APS concentration of 100 μM. 2 hours later, the cell were washed with PBS, 200 μM of IBMX was added again, and incubated for 70 hours. The cell were then solubilized with 200 μL of NaOH at 1 mol/L, and melanin was extracted and quantified by measuring the absorbance at 405 nm. The melanin production was increased about 3-fold by the addition of IBMX (no carrier for pH-responsive cell delivery). When the amount of melanin produced at this time was assumed to be 100%, the amount of melanin produced by A-3 addition of the invention was 48%, B-3 was 78%, C-3 was 85%, and D-3 was 90%.

HMV-II cell [7] = assay: Cellular damage assessment (Cell Counting Kit-8); format: cell-based; details: Cell Counting Kit-8, absorbance at 450 nm
Method: HMV-II cell were seeded at a concentration of 1×10^5 cell/mL in 500 μL/well on a 6-well plate. After incubation for 24 hours, 200 μM of IBM X, a melanin-producing stimulant, was added. APS was added to 100 μM for each pH-responsive delivery carrier into cell of A-3, B-3, C-3, and D-3. 2 hours later, the cell were washed with PBS, 200 μM of IVMX was added again, and incubated for 70 hours. To this, 10 μL of Cell Counting Kit-8 was added, and the cytotoxicity of sample addition was compared by measuring absorbance at 450 nm after 1 h of incubation.

[8] = lower critical dissolution temperature in water; format: physicochemical
Method: The lower critical dissolution temperature of the temperature-stimuli-responsive polymer-containing molecules in the present invention in water should be between a temperature close to body temperature and 70° C., which is the maximum temperature for carrier transportation in summer during product distribution (e.g., 35.0 to 70.0° C.). On the other hand, for the temperature-responsive polymer of the present invention, even if the lower critical dissolution temperature is near body temperature, it is easier to suppress cell death after delivery into cells if the temperature is as high as possible. […] In the present invention, the lower critical dissolution temperature of the temperature-responsive polymer in water is measured by differential scanning calorimetry (DSC).
For this reason, the lower critical dissolution temperature of the conventional temperature-stimulus-responsive-polymer containing molecules is preferred to be 37-42° C., which is close to the body temperature. […] In the present invention, the lower critical dissolution temperature of the temperature-stimulus-responsive polymer in water is measured by differential scanning calorimetry (DSC).

Remaining rate ([1]; 1 month, 0.02 mol/L): 56%
Remaining rate [2]: 1%
Compound: O=C1O[C@H]([C@@H](O)CO)C(O)=C1O [AA, ascorbic acid, reference compound]
fluorescence intensity (fluorescent material taken up into the cell) [3]: 52%

Remaining rate [1]: 78%
Evaluation results [2]: ○
Remaining rate [2]: 100%
Compound: CCCCCCCCCCCCCCCC(=O)OC[C@H](O)C1OC(=O)C(OP(=O)([O-])[O-])=C1[O-].[Na+].[Na+].[Na+] (stereo partly drawn) [APPS, Sodium ascorbic acid-2-phosphate-6-palmitate 3]
fluorescence intensity (fluorescent material taken up into the cell) [3]: 78%
fluorescence intensity (fluorescent material taken up into the cell) [4]: 76%

Evaluation results [1]: Δ
Remaining rate ([1]; 1 month, 0.02 mol/L): 91%
Remaining rate [2]: 3%
Compound: O=C1O[C@H]([C@@H](O)CO)C(O)=C1OP(=O)([O-])[O-].[Na+].[Na+] [APS, Sodium ascorbic acid-2-phosphate]
fluorescence intensity (fluorescent material taken up into the cell) [3]: 49%

Evaluation results [1]: ○
Remaining rate [1]: 96%
Evaluation results [2]: Δ
Remaining rate [2]: 85%
Compound: Cc1c(C)c2c(c(C)c1OP(=O)([O-])OC1=C(O)[C@@H]([C@@H](O)CO)OC1=O)CC[C@@](C)(CCC[C@H](C)CCC[C@H](C)CCCC(C)C)O2.[K+] [EPC, Potassium tocopheryl ascorbic acid-2-phosphate]
fluorescence intensity (fluorescent material taken up into the cell) [3]: 100%
fluorescence intensity (fluorescent material taken up into the cell) [4]: 100%

Compound: CCCCCCCC(=O)OC1=C(OCC(O)CO)C(=O)OC1C(O)CO (stereo not drawn) [GOVC, 2-glyceryl-3-Caprylyl ascorbate]
skin irritation [5]: no skin irritation was observed

Compound: CC(C)Cn1c(=O)n(C)c(=O)c2[nH]cnc21 [IBMX]
increase of melanin production (HMV-II cell [6]): about 3 fold
cytotoxicity (HMV-II cell [7]): cytotoxicity was confirmed

Compound: CCCCCCCC(=O)OC1=C(OCC(O)CO)C(C(O)CO)OC1=O (stereo not drawn) [OGVC, 3-glyceryl-2-Caprylyl ascorbate]
skin irritation [5]: no skin irritation was observed

Compound: CCCCCCCCCCCCCCCC(=O)OC[C@H](O)[C@H]1OC(=O)C(O)=C1O [PA, ascorbyl palmitate]
fluorescence intensity (fluorescent material taken up into the cell) [4]: 58%

Compound: Dioleoylephosphatidylethanolamine mercaptopropionyl (isopropylacrylamide/dimethylaminopropylacrylamide 5%) copolymer [DOPEMP (NIPAA/DMAPAA 5%) Cop]
lower critical dissolution temperature in water [8]: 40 °C
